Results: patent US9572891B2, “Oligonucleotide conjugates” (Geron Corporation, priority 2001, dated 2017)
Where “and” joins values, the source holds several entries; their conditions need not be identical. Identical values can stand only once. Like-named read-outs stand apart in the source and are kept apart here.

Target: T1, telomerase (Homo sapiens, UniProt O14746)
T1 construct: made in house; host or cells: 293 cells over-expressing hTERT
Experiment: Bio-Tel FlashPlate telomerase inhibition assay
Assay type: biochemical
Protocol: Extracts used for screening telomerase inhibitors were routinely prepared from 293 cells over-expressing the protein catalytic subunit of telomerase (hTERT). […] 200 ml of packed cells (harvested from about 100 liters of culture) were resuspended in an equal volume of hypotonic buffer (10 mM Hepes pH 7.9, 1 mM MgCl2, 1 mM DTT, 20 mM KCl, 1 mM PMSF) and lysed using a dounce homogenizer. The glycerol concentration was adjusted to 10% and NaCl was slowly added to give a final concentration of 0.3 M. The lysed cells were stirred for 30 min and then pelleted at 100,000×g for 1 hr. Solid ammonium sulfate was added to the S100 supernatant to reach 42% saturation. The material was centrifuged; the pellet was resuspended in one fifth of the original volume and dialyzed against Buffer ‘A’ containing 50 mM NaCl. After dialysis the extract was centrifuged for 30 min at 25,000×g. Prior to affinity chromatography, Triton X-100™ (0.5%), KCl (0.3 M) and tRNA ([…]) were added. Affinity oligonucleotide (5′-biotinTEG-biotinTEG-biotinTEG-GTA GAC CTG TTA CCA guu agg guu ag 3′ [SEQ ID NO: 16]; lower case represents 2′ O-methyl ribonucleotides and upper case represents deoxynucleotides) was added to the extract (1 nmol per 10 ml of extract). After an incubation of 10 min at 30° C., Neutravidin beads (Pierce; 250 μl of a 50% suspension) were added and the mixture was rotated overnight at 4° C. The beads were pelleted and washed three times with Buffer ‘B’ containing 0.3 M KCl, twice with Buffer ‘B’ containing 0.6 M KCl, and twice more with Buffer B containing 0.3 M KCl. Telomerase was eluted in Buffer ‘B’ containing 0.3 M KCl, 0.15% Triton X-100™ and a 2.5 molar excess of displacement oligonucleotide (5′-CTAACCCTAACTGGTAACAGGTCTAC-3′ [SEQ ID NO: 17] at 0.5 ml per 125 μl of packed Neutravidin beads) for 30 min. at room temperature. A second elution was performed and pooled with the first. Purified extracts typically had specific activities of 10 fmol nucleotides incorporated/min/μl extract, or 200 nucleotides/min/mg total protein.
A suitable assay for detection and/or measurement of telomerase activity is based on a measurement of the addition of TTAGGG (SEQ ID NO. 8) telomeric repeats to a biotinylated telomerase substrate primer, a reaction catalyzed by telomerase. The biotinylated products are captured in streptavidin-coated microtiter plates. An oligonucleotide probe complementary to 3.5 telomere repeats labeled with ^33P is used for measuring telomerase products, as described below. Unbound probe is removed by washing and the amount of probe annealing to the captured telomerase products is determined by scintillation counting.
The data provided in Tables 1 and 2 below were obtained by performing the assay as described below: • 1. Oligonucleotide conjugates were stored as concentrated stocks and dissolved in PBS. • 2. For testing, the oligonucleotide conjugates were diluted to a 15× working stock in PBS and 2 μl was dispensed into two wells of a 96-well microtiter dish (assayed in duplicate). • 3. Telomerase extract was diluted to a specific activity of 0.04-0.09 fmol dNTP incorporated/min./μl in Telomerase Dilution Buffer and 18 μl added to each sample well to preincubate with compound for 30 minutes at room temperature. • 4. The telomerase reaction was initiated by addition of 10 μl Master Mix to the wells containing telomerase extract and oligonucleotide compound being tested. The plates were sealed and incubated at 37° C. for 90 min. • 5. The reaction was stopped by the addition of 10 μl HCS. • 6. 25 μl of the reaction mixture was transferred to a 96-well streptavidin-coated FlashPlate™ (NEN) and incubated for 2 hours at room temperature with mild agitation. • 7. The wells were washed three times with 180 μl 2×SSC without any incubation.
8. The amount of probe annealed to biotinylated telomerase products was detected in a scintillation counter.

[1] = Table 1, oligonucleotide has N3′→P5′ phosphoramidate (NP) internucleoside linkages, read-out: IC50 NP
[2] = Table 1, oligonucleotide has N3′→P5′ thio-phosphoramidate (NPS) internucleoside linkages, read-out: IC50 NPS
[3] = Table 2, oligonucleotide has N3′→P5′ thio-phosphoramidate (NPS) internucleoside linkages, read-out: IC50 NPS

T1 sequence (O14746 whole entry): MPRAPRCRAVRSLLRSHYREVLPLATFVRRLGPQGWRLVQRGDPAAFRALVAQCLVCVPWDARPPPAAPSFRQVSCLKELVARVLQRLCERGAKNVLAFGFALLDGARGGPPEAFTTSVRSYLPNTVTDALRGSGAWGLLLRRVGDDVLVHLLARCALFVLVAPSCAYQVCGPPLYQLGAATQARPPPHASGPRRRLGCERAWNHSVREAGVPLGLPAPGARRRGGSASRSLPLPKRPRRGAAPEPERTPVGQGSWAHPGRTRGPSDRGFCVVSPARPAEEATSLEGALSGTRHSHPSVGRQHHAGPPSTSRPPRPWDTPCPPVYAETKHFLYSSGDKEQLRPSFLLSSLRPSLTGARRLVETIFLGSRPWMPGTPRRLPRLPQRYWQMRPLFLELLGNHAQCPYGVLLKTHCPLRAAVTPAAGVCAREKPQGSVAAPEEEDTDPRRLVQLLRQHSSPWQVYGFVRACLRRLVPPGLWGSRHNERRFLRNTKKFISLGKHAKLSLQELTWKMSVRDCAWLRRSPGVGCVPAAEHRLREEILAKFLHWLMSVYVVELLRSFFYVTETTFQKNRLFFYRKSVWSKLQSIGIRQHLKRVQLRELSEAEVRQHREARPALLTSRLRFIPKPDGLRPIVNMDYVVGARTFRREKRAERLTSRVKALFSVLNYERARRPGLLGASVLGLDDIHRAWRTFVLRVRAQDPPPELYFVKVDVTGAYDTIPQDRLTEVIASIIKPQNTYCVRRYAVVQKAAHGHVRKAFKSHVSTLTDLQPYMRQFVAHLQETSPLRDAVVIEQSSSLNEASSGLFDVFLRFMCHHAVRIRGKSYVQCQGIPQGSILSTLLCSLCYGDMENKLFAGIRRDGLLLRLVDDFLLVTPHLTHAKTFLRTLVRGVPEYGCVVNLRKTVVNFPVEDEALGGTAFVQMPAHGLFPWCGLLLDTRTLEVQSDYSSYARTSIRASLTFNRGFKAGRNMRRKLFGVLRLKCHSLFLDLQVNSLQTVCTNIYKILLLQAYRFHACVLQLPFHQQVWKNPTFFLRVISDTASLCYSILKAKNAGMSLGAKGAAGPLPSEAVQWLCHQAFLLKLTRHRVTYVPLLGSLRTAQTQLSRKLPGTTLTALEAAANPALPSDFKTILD
T1 sequence (O60832 whole entry partner): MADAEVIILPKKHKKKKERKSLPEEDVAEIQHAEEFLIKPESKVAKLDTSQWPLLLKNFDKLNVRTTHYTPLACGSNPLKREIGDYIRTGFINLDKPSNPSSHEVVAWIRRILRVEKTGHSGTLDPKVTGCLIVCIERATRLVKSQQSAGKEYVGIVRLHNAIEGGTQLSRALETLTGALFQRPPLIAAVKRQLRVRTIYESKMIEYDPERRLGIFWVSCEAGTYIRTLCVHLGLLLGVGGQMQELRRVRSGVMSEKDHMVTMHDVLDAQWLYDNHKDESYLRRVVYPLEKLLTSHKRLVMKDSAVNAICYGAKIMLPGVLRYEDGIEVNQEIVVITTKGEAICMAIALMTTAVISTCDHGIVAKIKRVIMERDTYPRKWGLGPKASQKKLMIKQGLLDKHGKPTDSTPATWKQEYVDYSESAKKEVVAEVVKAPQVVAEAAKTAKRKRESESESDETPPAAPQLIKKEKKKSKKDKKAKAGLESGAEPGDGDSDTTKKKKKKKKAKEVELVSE
T1 sequence (Q9NPE3 whole entry partner): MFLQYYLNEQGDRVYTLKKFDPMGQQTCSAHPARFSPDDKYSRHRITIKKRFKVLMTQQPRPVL
T1 sequence (Q9NX24 whole entry partner): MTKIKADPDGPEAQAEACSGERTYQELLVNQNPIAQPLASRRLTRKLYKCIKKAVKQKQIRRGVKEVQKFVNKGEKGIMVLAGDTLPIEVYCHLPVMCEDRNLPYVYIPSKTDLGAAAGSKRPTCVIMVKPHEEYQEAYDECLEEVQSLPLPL
T1 sequence (Q9NY12 whole entry partner): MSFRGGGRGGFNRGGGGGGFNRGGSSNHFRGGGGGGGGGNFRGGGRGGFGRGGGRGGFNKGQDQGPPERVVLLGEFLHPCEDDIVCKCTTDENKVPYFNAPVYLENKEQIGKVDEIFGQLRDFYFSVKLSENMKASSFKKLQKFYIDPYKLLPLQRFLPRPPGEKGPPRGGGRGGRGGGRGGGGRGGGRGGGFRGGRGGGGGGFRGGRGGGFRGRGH

| Sequence | IC50 [1] | IC50 [2] | IC50 [3] |
| --- | --- | --- | --- |
| TTAGGG (unconjugated): unconjugated oligonucleotide TTAGGG (SEQ ID: 8), NP and NPS forms | 11000 nM | 1200 nM | 1170 nM and 1000 to 55000 nM |
| GGGTTAG (unconjugated): unconjugated oligonucleotide GGGTTAG (SEQ ID: 6), tested with NP and with NPS internucleoside linkages | 600 nM | 9 nM and 5 nM and 10 nM and 8 nM | 9 nM and 5 nM and 10 nM |
| GTTAGG (unconjugated): unconjugated oligonucleotide GTTAGG (SEQ ID: 7), NP and NPS forms | 470 nM | 120 nM | – |
